Measurements: article PMC6523311, “Synthesis and Biological Evaluation of RGD–Cryptophycin Conjugates for Targeted Drug Delivery” (Pharmaceutics, 2019)

Assays:
[1] = plasma metabolic stability assay, mouse plasma; format: in vitro ADME; conditions: 24 h
Experimental: (§1) The sample preparation and the metabolic analysis of the conjugates was carried out similarly to a previously described method. In a 96-well plate, the stock solutions (3 mM in dimethyl sulfoxide (DMSO)) of the conjugates and the control compound were diluted with 250 μL of plasma (pooled heparinized mouse ICR/CD1 M plasma #08 or human plasma #MPLLIHP-M, #BHR1003077, BioreclamationIVT, Westbury, NY, USA) to give a 3-µM concentration and incubated at 37 °C. At each sampling time an aliquot of 30 µL was transferred into a 96-deep-well plate and the reaction was stopped with 120 µL of acetonitrile (ACN) containing 0.1% HCOOH and 400 ng/mL of warfarin as internal standard (IS). This mixture was centrifuged at 1100× g for 30 min at 4 °C and 50 µL of supernatants were transferred into a clean 96-deep-well plate and diluted with 50 µL of 0.1% HCOOH in water. Samples were stored at −80 °C prior to UPLC-HRMS analysis (see Supplementary Materials). The stability was determined based on the disappearance of the test compound as a function of incubation time, using area ratios (analyte peak area vs internal standard peak area). The elimination constant k was calculated by plotting mean disappearance values on a semi-logarithmic scale and fitting with a best fit linear regression using Microsoft Excel. The half-life (t1/2) expressed in hours was determined using equation: t1/2 = ln2/(−k). […]

[2] = test system: M21 human melanoma cells (αvβ3+); test: MTT in vitro cytotoxicity assay, M21; format: cell-based; conditions: for IC50: Homo sapiens, MTT, 2 h treatment and additional 70 h incubation
Experimental: (§2) The human melanoma M21 and M21-L cells were kindly provided by Dr. David Cheresh and The Scripps Research Institute (La Jolla, CA, USA). Cells were cultured in RPMI 1640 supplemented with 10% fetal bovine serum (FBS), 1% L-glutamine and 1% Penicillin/Streptomycin in a humidified incubator at 37 °C and 5% CO2.
(§3) Cell viability was quantified by 3-(4,5-dimethylthiazol-2-yl)-2,5-diphenyltetrazolium bromide (MTT) assay. Cells were plated at a density of 3000 cells/well (Nunc® MicroWell® flat-bottom 96-well plate, Thermo Fisher Scientific) and incubated overnight to allow adherence. The following day, cells were treated with serial dilutions of each compound or 0.1% DMSO as control. After 2 h of incubation, cells were centrifuged at 1200 rpm for 5 min; supernatant containing the compounds was removed and replaced with fresh medium. Cells were further incubated for 70 h as described above, and at the end of treatment, 5 µL of MTT (5 mg/mL in deionized H2O, #M5655, Sigma Aldrich) were added to each well and the cells incubated for another 2 h. Finally, 100 µL of lysis buffer (10% SDS, 10 mM HCl) were added, and cells were placed in the incubator overnight for the formazan crystal solubilization. Absorbance at 540 nm was measured using FLUOstar Omega (BMG Labtech, Ortenberg, Germany) instrument and the growth inhibition ratio was calculated. Blank controls detecting cell-free media absorbance were performed in parallel. Three experimental replicates were used. The half-maximal inhibitory concentration values (IC50) were obtained from viability curves by fitting data to the four-parameter logistic equation using GraphPad Prism 6 (GraphPad Software, San Diego, CA, USA). The cell viability was expressed as percentage relative to the respective control conditions.

[3] = test system: M21-L human melanoma cells (αv-, αvβ3-); test: MTT in vitro cytotoxicity assay, M21-L; format: cell-based; conditions: 2 h treatment and additional 70 h incubation
Experimental: as §2, §3

[4] = plasma metabolic stability assay, human plasma; format: in vitro ADME; conditions: 24 h
Experimental: as §1

[5] = target: T1, human αvβ3 integrin (Homo sapiens, UniProt P05106+P06756, DEL719-788); test: competitive ELISA-like integrin binding assay (immobilized vitronectin, soluble integrin); conditions: competition with immobilized vitronectin
T1 construct: purchased R&D Systems 3050-AV-050

[6] = target: T2, bovine spleen cathepsin B (Bos taurus, UniProt P07688); test: cathepsin B cleavage assay; format: in vitro ADME; conditions: cathepsin B 1 U/mL, 37 °C, pH 5.5, 5 µM substrate
T2 construct: cathepsin B (bovine spleen cathepsin B, #C6286, Sigma Aldrich); purchased Sigma Aldrich C6286; host or cells: bovine spleen
Experimental: L-cysteine (#C8152, Sigma Aldrich) was dissolved in acetate buffer/ethylenediaminetetraacetic acid (EDTA) 1 mM pH 5.5 to get a solution with a final concentration of L-cysteine of 28 mM. This solution was used to dilute an aliquot of cathepsin B (bovine spleen cathepsin B, #C6286, Sigma Aldrich) to 1.11 U/mL. Sample containing cathepsin B was pre-incubated at 37 °C for 15 min and then split into 45-µL aliquots in Eppendorf tubes, two replicates for each incubation time. Aliquots of 5 µL of 50 µM solutions of the substrates prepared in MeOH/H2O (50/50) were added to each tube, to get a final concentration of 5 µM. Tubes corresponding to t = 0 min contained 100 µL of 1% HCOOH in MeOH and were put in an ice bath to stop the reaction. All the other tubes were incubated at 37 °C in an oscillating thermostatic bath and reaction was stopped at the following incubation times: 0.25, 0.5, 1, 2, 4, and 6 h, as described for t = 0 min samples. Samples were centrifuged for 10 min at 14,000 rpm at 4 °C and filtered with regenerated cellulose syringe filters prior to injection in the HPLC-MS system (see Supplementary Materials). […] Substrates and possible metabolites were quantified based on calibration curves prepared in acetate buffer/EDTA/L-cysteine.

Row | Structure (SMILES) | stability in mouse plasma [1] | IC50 [2] [nM] | fold higher biological activity than cryptophycin-55 glycinate ([2]; M21 and M21-L cells, same test conditions) | IC50 [3] [nM] | stability in human plasma [4] | IC50 [5] [nM] | cleavage and metabolism upon incubation with cathepsin B [6]
1 | COc1ccc(C[C@H]2NC(=O)/C=C/C[C@@H]([C@H](C)[C@H]3O[C@@H]3c3ccccc3)OC(=O)[C@H](CC(C)C)OC(=O)C(C)(C)CNC2=O)cc1Cl [compound 2, cryptophycin-52, reference compound] | significant metabolism | 0.07 | 10-20 fold | 0.02 | – | – | –
2 | COc1ccc(C[C@H]2NC(=O)/C=C/C[C@@H]([C@H](C)[C@@H](OC(=O)CN)[C@@H](Cl)c3ccccc3)OC(=O)[C@H](CC(C)C)OC(=O)C(C)(C)CNC2=O)cc1Cl [compound 4, Cryptophycin-55 glycinate] | markedly improved stability compared to the parent compound | 0.75 ± 0.11 | – | 0.14 ± 0.08 | good stability | – | –
3 | [N-]=[N+]=NCCC(=O)NCCCC[C@@H]1NC(=O)[C@@H](Cc2ccccc2)NC(=O)[C@H](CC(=O)O)NC(=O)CNC(=O)[C@H](CCCNC(=N)N)NC1=O [compound 9] | – | – | – | – | – | 0.71 | –
4 | COc1ccc(C[C@H]2NC(=O)/C=C/C[C@@H]([C@H](C)[C@@H](OC(=O)CNC(=O)[C@@H]3CCCN3C(=O)CN)[C@@H](Cl)c3ccccc3)OC(=O)[C@H](CC(C)C)OC(=O)C(C)(C)CNC2=O)cc1Cl [compound 12, Gly-Pro-Cry-55gly] | – | 0.15 ± 0.03 | – | 0.039 ± 0.01 | – | – | not further metabolized to cryptophycin-55 glycinate
